The values that follow come from patent publication US20120184583A1, “MODULATORS OF ATP-BINDING CASSETTE TRANSPORTERS” (VERTEX PHARMACEUTICALS INCORPORATED, priority 2003, published 2012).

The assay deals with T1, ΔF508-CFTR stably expressed in NIH3T3 cells (Homo sapiens, UniProt P13569, DEL508-508).
T1 construct: expressed in transfected cells
T1 sequence (P13569 with tags, fused parts or gaps DEL508-508): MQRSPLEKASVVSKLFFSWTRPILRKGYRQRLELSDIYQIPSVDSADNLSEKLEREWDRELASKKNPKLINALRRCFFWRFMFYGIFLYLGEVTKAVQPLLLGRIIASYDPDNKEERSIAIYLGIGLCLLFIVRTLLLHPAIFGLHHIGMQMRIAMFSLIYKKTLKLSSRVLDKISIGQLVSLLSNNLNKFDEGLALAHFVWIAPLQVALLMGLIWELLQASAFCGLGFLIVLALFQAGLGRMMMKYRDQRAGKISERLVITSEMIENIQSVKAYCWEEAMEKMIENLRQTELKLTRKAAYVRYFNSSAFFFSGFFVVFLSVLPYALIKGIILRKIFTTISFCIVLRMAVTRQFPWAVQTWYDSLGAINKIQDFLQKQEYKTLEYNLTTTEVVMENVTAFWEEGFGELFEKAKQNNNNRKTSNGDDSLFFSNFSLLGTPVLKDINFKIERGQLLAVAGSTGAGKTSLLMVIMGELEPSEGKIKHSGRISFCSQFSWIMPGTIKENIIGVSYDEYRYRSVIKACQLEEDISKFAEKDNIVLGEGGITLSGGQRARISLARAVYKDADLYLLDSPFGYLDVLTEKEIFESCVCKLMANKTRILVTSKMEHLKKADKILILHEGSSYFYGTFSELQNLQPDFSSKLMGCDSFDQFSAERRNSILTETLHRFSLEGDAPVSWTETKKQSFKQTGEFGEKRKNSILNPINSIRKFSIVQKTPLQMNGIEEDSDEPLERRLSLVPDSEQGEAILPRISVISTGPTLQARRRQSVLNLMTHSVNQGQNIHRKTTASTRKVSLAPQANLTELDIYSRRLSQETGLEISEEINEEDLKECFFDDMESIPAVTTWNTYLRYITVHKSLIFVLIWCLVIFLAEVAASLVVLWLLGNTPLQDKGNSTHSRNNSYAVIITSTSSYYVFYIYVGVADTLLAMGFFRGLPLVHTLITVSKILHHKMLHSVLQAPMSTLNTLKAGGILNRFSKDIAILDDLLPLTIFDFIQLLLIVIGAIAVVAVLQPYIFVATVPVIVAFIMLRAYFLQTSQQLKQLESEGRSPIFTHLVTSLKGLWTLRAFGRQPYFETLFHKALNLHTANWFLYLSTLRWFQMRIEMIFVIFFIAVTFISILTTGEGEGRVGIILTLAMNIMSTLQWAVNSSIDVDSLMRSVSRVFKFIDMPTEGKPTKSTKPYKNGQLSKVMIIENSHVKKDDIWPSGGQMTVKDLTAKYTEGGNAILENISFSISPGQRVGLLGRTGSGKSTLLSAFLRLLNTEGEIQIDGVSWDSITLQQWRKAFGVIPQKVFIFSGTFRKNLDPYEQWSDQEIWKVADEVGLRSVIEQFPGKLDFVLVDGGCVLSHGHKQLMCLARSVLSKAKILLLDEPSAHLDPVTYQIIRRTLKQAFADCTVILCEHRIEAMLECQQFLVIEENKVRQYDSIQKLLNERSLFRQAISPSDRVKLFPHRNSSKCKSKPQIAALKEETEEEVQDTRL
Briefly: Membrane potential optical (FRET/VIPR) assay for ΔF508-CFTR potentiation. The format is cell-based. The note with it: NIH3T3, read-out: % Efficacy (relative modulating efficacy in comparison with genistein), normalized to peak genistein response. An excerpt: Membrane potential optical methods for assaying ΔF508-CFTR potentiation properties of compounds.
These voltage sensitive assays are based on the change in fluorescence resonant energy transfer (FRET) between the membrane-soluble, voltage-sensitive dye, DiSBAC2(3), and a fluorescent phospholipid, CC2-DMPE, which is attached to the outer leaflet of the plasma membrane and acts as a FRET donor. Changes in membrane potential (Vm) cause the negatively charged DiSBAC2(3) to redistribute across the plasma membrane and the amount of energy transfer from CC2-DMPE changes accordingly. The changes in fluorescence emission were monitored using VIPR™ II, which is an integrated liquid handler and fluorescent detector designed to conduct cell-based screens in 96- or 384-well microtiter plates.
To identify potentiators of ΔF508-CFTR, a double-addition HTS assay format was developed (FIG. 1A). During the first addition, a Cl^−-free medium with or without test compound was added to each well. After 22 sec, a second addition of Cl^−-free medium containing 2-10 μM forskolin was added to activate ΔF508-CFTR. The extracellular Cl^− concentration following both additions was 28 mM, which promoted Cl^− efflux in response to ΔF508-CFTR activation and the resulting membrane depolarization was optically monitored using the FRET-based voltage-sensor dyes. The double-addition format has several advantages. First, it enables separation of compounds that act independently of forskolin-activated ΔF508-CFTR. Second, it allows compounds that act from the cytoplasmic surface of the channel to cross the plasma membrane and take effect. Lastly, fluorescent changes that arise from test compound addition alone can be identified.
High-throughput assay format for identifying potentiators of ΔF508-CFTR stably expressed in NIH3T3 cells.
FIG. 1A: Double-addition assay format in which Cl^−-free medium was added with or without the test compound prior to forskolin addition. The cells were incubated at 27° C. for 16-24 hr prior to use.
• Bath Solution #1: (in mM)NaCl 160, KCl 4.5, CaCl2 2, MgCl2 1, HEPES 10, pH 7.4 with NaOH. • Chloride-free bath solution: Chloride salts in Bath Solution #1 are substituted with gluconate salts. • CC2-DMPE: Prepared as a 10 mM stock solution in DMSO and stored at −20° C. • DiSBAC2(3): Prepared as a 10 mM stock in DMSO and stored at −20° C.
NIH3T3 mouse fibroblasts stably expressing ΔF508-CFTR are used for optical measurements of membrane potential. The cells are maintained at 37° C. in 5% CO2 and 90% humidity in Dulbecco's modified Eagle's medium supplemented with 2 mM glutamine, 10% fetal bovine serum, 1×NEAA, β-ME, 1×pen/strep, and 25 mM HEPES in 175 cm^2 culture flasks. For all optical assays, the cells were seeded at 30,000/well in 384-well matrigel-coated plates and cultured for 2 hrs at 37° C. before culturing at 27° C. for 24 hrs.
In the case of `CCSc1ncccc1-c1cc(-c2ccccc2)n[nH]1` [I-3], the Emax fell in the range of 35 to 75%.
The same measure for `Fc1ccccc1-c1cc(-c2ccccc2)n[nH]1` [I-4]: 35 to 75%.
`CCCSc1ncccc1-c1cc(-c2ccccc2)n[nH]1` [I-5]: the Emax is 35 to 75%.
Take `Fc1ccccc1-c1cc(-c2ccccc2F)[nH]n1` [I-6]: the Emax was in the range of 35 to 75%.
As for `Fc1ccccc1-c1cc(-c2ccccc2Cl)[nH]n1` [I-7], the Emax was in the range of 35 to 75%.
The same measure for `Fc1ccccc1-c1cc(-c2cccc(Cl)c2)[nH]n1` [I-9]: 35 to 75%; for `Fc1ccccc1-c1cc(-c2ccc3c(c2)OC(F)(F)O3)[nH]n1` [I-10]: 35 to 75%.
The same measure for `c1ccc(-c2cc(-c3cccc4c3OCO4)[nH]n2)cc1` [I-15]: 35 to 75%; for `FC(F)(F)Oc1ccc(-c2cc(-c3ccccc3)n[nH]2)cc1` [I-16]: 35 to 75%.
For `Fc1ccccc1-c1cc(-c2ccc(OC(F)(F)F)cc2)[nH]n1` [I-17], the Emax was in the range of 35 to 75%.
On to `Fc1ccccc1-c1cc(-c2cccc(OC(F)(F)F)c2)[nH]n1` [I-18], for which the Emax is 35 to 75%.
For the compound `Cc1cccc(-c2cc(-c3ccccc3)n[nH]2)c1` [I-19], the Emax lay within 35 to 75%.
For `COc1ccc(-c2cc(-c3ccccc3O)n[nH]2)cc1OC` [IA-1], the Emax lay within 35 to 75%.
In the case of `COc1ccc(O)c(-c2cc(-c3ccc(F)cc3)[nH]n2)c1` [IA-2] it was 35 to 75%; in that of `COc1cccc(O)c1-c1cc(-c2ccccc2)n[nH]1` [IA-3], 35 to 75%; in that of `Cc1ccc(O)c(-c2cc(-c3ccccc3[N+](=O)[O-])[nH]n2)c1` [IA-5], > 75%.
Take `Oc1ccc(F)cc1-c1cc(-c2ccccc2C(F)(F)F)[nH]n1` [IA-6]: the Emax is > 75%.
`Cc1ccc(O)c(-c2cc(-c3ccc(-c4cccc(C(F)(F)F)c4)o3)n[nH]2)c1` [IA-7]: the Emax lay in the range of 35 to 75%.
Consider `Oc1ccccc1-c1cc(-c2ccc(F)cc2)[nH]n1` [IA-8], for which the Emax is 35 to 75%.
In the case of `Cc1ccc(O)c(-c2cc(-c3ccc(OCc4ccccc4)cc3)n[nH]2)c1` [IA-10] it was 35 to 75%; in that of `COc1ccc(-c2cc(-c3ccccc3O)n[nH]2)cc1` [IA-11], 35 to 75%; in that of `CCCc1ccc(O)c(-c2cc(-c3ccccc3)[nH]n2)c1` [IA-14], > 75%.
For `COc1ccc(O)c(-c2cc(-c3ccccc3C(F)(F)F)n[nH]2)c1` [IA-16], the Emax is 35 to 75%.
As to `Cc1ccc(O)c(-c2cc(-c3ccc(C(F)(F)F)c(C)c3)n[nH]2)c1` [IA-17], the Emax was 35 to 75%.
As for `COc1ccc(O)c(-c2cc(-c3ccccc3)[nH]n2)c1` [IA-18], the Emax is 35 to 75%.
For `Oc1ccc(Cl)cc1-c1cc(-c2ccccc2)[nH]n1` [IA-19], the Emax was in the range of 35 to 75%.
The same measure for `O=[N+]([O-])c1ccccc1-c1cc(-c2cc(F)ccc2O)[nH]n1` [IA-20]: > 75%; for `Oc1ccc(F)cc1-c1cc(-c2ccccc2)n[nH]1` [IA-21]: 35 to 75%.
`COc1ccc(-c2cc(-c3cc(C)ccc3O)n[nH]2)cc1` [IA-22]: the Emax lay in the range of 35 to 75%.
As to `Cc1ccccc1-c1cc(-c2ccccc2O)n[nH]1` [IA-24], the Emax was 35 to 75%.
Take `Cc1ccc(O)c(-c2cc(-c3ccc4c(c3)OCO4)n[nH]2)c1` [IA-25]: the Emax was in the range of 35 to 75%.
With `CC(C)c1ccc(O)c(-c2cc(-c3ccccc3)[nH]n2)c1` [IA-26], the Emax is > 75%.
The same measure for `Cc1ccc(O)c(-c2cc(-c3cccnc3)n[nH]2)c1` [IA-27, 4-Methyl-2-(5-pyridin-3-yl-1H-pyrazol-3-yl)phenol]: 35 to 75%; for `Cc1ccc(O)c(-c2cc(-c3cccs3)n[nH]2)c1` [IA-28]: > 75%; for `Cc1ccc(O)c(-c2cc(-c3ccccc3-c3ccncc3)n[nH]2)c1` [IA-29]: 35 to 75%.
`Cc1ccc(O)c(-c2cc(-c3ccccc3C#N)n[nH]2)c1` [IA-30]: the Emax lay in the range of 35 to 75%.
Regarding `Oc1ccc(-c2cc(-c3ccccc3O)[nH]n2)cc1` [IA-33], the Emax lay within 35 to 75%.
The same measure for `Cc1ccc(O)c(-c2cc(-c3ccccc3O)n[nH]2)c1` [IA-34]: < 35%; for `Cc1ccc(O)c(-c2cc(-c3ccc(Br)cc3)[nH]n2)c1` [IA-35]: > 75%.
Consider `Cc1cc(O)c(-c2cc(-c3ccccc3)n[nH]2)cc1C` [IA-36], for which the Emax lay within 35 to 75%.
In the case of `CSc1ncccc1-c1cc(-c2ccccc2O)n[nH]1` [IA-37], the Emax fell in the range of 35 to 75%.
On to `COc1cccc(-c2n[nH]c(-c3ccccc3O)c2OC)c1` [IA-38], for which the Emax was in the range of 35 to 75%.
Consider `CC(=O)Nc1cccc(-c2cc(-c3cc(C)ccc3O)[nH]n2)c1` [IA-40], for which the Emax was in the range of 35 to 75%.
In the case of `Cc1ccc(O)c(-c2cc(-c3ccccc3C(F)(F)F)n[nH]2)c1` [IA-41], the Emax lay in the range of 35 to 75%.
Consider `Cc1ccc(O)c(-c2cc(-c3cc(C(F)(F)F)oc3C)n[nH]2)c1` [IA-42], for which the Emax was > 75%.
As to `Oc1cccc(-c2cc(-c3ccccc3O)[nH]n2)c1` [IA-43], the Emax was > 75%.
In the case of `Cc1ccc(O)c(-c2cc(-c3ccc(F)c(F)c3)n[nH]2)c1` [IA-44] it was 35 to 75%; in that of `Cc1ccc(O)c(-c2cc(-c3ccccc3OC(F)(F)F)n[nH]2)c1` [IA-45], > 75%; in that of `Cc1ccc(O)c(-c2cc(-c3ccccc3Cl)[nH]n2)c1` [IA-48], < 35%.
As for `Cc1ccc(O)c(-c2cc(-c3cc(C(C)(C)C)oc3C)n[nH]2)c1` [IA-50], the Emax was in the range of 35 to 75%.
`Cc1ccc(O)c(-c2cc(-c3ccc(F)c(Cl)c3)n[nH]2)c1` [IA-51]: the Emax fell in the range of 35 to 75%.
The same measure for `O=[N+]([O-])c1ccccc1-c1cc(-c2cc(Cl)ccc2O)n[nH]1` [IA-52]: > 75%; for `Cc1ccc(O)c(-c2cc(-c3cccc(C)c3C)n[nH]2)c1` [IA-53]: 35 to 75%.
As to `Oc1ccc(-c2nnn[nH]2)cc1-c1cc(-c2ccccc2)n[nH]1` [IA-54], the Emax was in the range of 35 to 75%.
The same measure for `COc1ccc(O)c(-c2cc(-c3ccccc3Cl)[nH]n2)c1` [IA-55]: 35 to 75%; for `Cc1ccc(O)c(-c2cc(-c3c(F)ccc(C)c3F)n[nH]2)c1` [IA-56]: 35 to 75%; for `Cc1ccc(-c2cc(-c3ccccc3Cl)[nH]n2)c(O)c1` [IA-58]: 35 to 75%.
In the case of `Cc1ccc(-c2cc(-c3cc(C)ccc3O)n[nH]2)cc1` [IA-59] it was 35 to 75%; in that of `COc1ccc(O)c(-c2cc(-c3ccccc3C)[nH]n2)c1` [IA-62], 35 to 75%; in that of `Cc1ccc(-c2cc(-c3ccc(F)cc3)[nH]n2)c(O)c1` [IA-63], < 35%.
For the compound `Cc1ccc(O)c(-c2cc(-c3cc(C(F)(F)F)nn3-c3ccc([N+](=O)[O-])cc3)n[nH]2)c1` [IA-65], the Emax lay in the range of 35 to 75%.
Regarding `COc1cccc(-c2cc(-c3cc(C)ccc3O)[nH]n2)c1` [IA-66], the Emax was 35 to 75%.
In the case of `Oc1ccccc1-c1cc(-c2ccccc2Cl)[nH]n1` [IA-68] it was 35 to 75%; in that of `Oc1cc(F)ccc1-c1cc(-c2ccccc2)[nH]n1` [IA-70], 35 to 75%; in that of `Cc1ccc(O)c(-c2cc(C3CCCCC3)n[nH]2)c1` [IA-71], 35 to 75%.
As for `COc1ccc(-c2cc(-c3cc(C)ccc3O)[nH]n2)cc1C(F)(F)F` [IA-72], the Emax was in the range of 35 to 75%.
Take `Cc1ccc(O)c(-c2cc(-c3cccc(C(F)(F)F)c3C)n[nH]2)c1` [IA-74]: the Emax lay in the range of 35 to 75%.
On to `Cc1ccc(O)c(-c2cc(-c3ccc(-c4ccc(S(C)(=O)=O)cc4)o3)n[nH]2)c1` [IA-76], for which the Emax fell in the range of 35 to 75%.
As to `COc1ccc(O)c(-c2cc(-c3cccnc3Oc3ccccc3)[nH]n2)c1` [IA-77], the Emax fell in the range of 35 to 75%.
As to `Oc1ccccc1-c1cc(-c2c(F)cccc2F)n[nH]1` [IA-78], the Emax was in the range of 35 to 75%.
With `Cc1ccc(O)c(-c2cc(-c3ccccc3SC(F)F)n[nH]2)c1` [IA-79], the Emax was < 35%.
In the case of `CCOc1ccccc1-c1cc(-c2cc(C)ccc2O)[nH]n1` [IA-80] it was 35 to 75%.
With `Oc1ccccc1-c1cc(-c2cccc(F)c2)[nH]n1` [IA-81], the Emax lay in the range of 35 to 75%.
With `Cc1ccc(-c2cc(-c3ccc(C)cc3O)n[nH]2)cc1` [IA-82], the Emax was in the range of 35 to 75%.
